#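 Cells were grown in 96-well plates and exposed to each compound for 48 hours at five concentrations; endpoints were interpolated linearly between bracketing concentrations, or set to the highest concentration if not reached. TGI: total growth inhibition.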
# Columns and labels:
# Assay in all cases: growth of human tumour cells (NCI), 48 h
# 786-0 renal = tested on: 786-0 renal
# K-562 leukemia = tested on: K-562 leukemia
# SNB-75 CNS = tested on: SNB-75 CNS
# SF-295 CNS = tested on: SF-295 CNS
# NCI-H23 lung = tested on: NCI-H23 lung
# NCI-H522 lung = tested on: NCI-H522 lung
# HT29 colon = tested on: HT29 colon
# OVCAR-8 ovarian = tested on: OVCAR-8 ovarian
# KM12 colon = tested on: KM12 colon
# SW-620 colon = tested on: SW-620 colon
# HOP-62 NSCLC = tested on: HOP-62 NSCLC
# SK-MEL-28 melanoma = tested on: SK-MEL-28 melanoma
# LXFL 529 NSCLC = tested on: LXFL 529 NSCLC
# UO-31 renal = tested on: UO-31 renal
# SF-539 CNS = tested on: SF-539 CNS
# KM20L2 colon = tested on: KM20L2 colon
# OVCAR-3 ovarian = tested on: OVCAR-3 ovarian
# SF-268 CNS = tested on: SF-268 CNS
# SK-OV-3 ovarian = tested on: SK-OV-3 ovarian
# IGROV1 ovarian = tested on: IGROV1 ovarian
# COLO 205 colon = tested on: COLO 205 colon
# HCT-15 colon = tested on: HCT-15 colon
# HOP-92 NSCLC = tested on: HOP-92 NSCLC
# MALME-3M melanoma = tested on: MALME-3M melanoma
# HCT-116 colon = tested on: HCT-116 colon
# NCI-H460 lung = tested on: NCI-H460 lung
# OVCAR-4 ovarian = tested on: OVCAR-4 ovarian
# SN12C renal = tested on: SN12C renal
# DLD-1 colon = tested on: DLD-1 colon
# SNB-19 CNS = tested on: SNB-19 CNS
# ACHN renal = tested on: ACHN renal
# DMS 273 small cell lung = tested on: DMS 273 small cell lung
# RXF-631 renal = tested on: RXF-631 renal
# NCI-H226 lung = tested on: NCI-H226 lung
# U251 CNS = tested on: U251 CNS
# RPMI-8226 leukemia = tested on: RPMI-8226 leukemia
# SNB-78 CNS = tested on: SNB-78 CNS
# A549 NSCLC = tested on: A549 NSCLC
# CAKI-1 renal = tested on: CAKI-1 renal
# TK-10 renal = tested on: TK-10 renal
# LOX IMVI melanoma = tested on: LOX IMVI melanoma
# OVCAR-5 ovarian = tested on: OVCAR-5 ovarian
# SK-MEL-2 melanoma = tested on: SK-MEL-2 melanoma
# XF 498 CNS = tested on: XF 498 CNS
# UACC-62 melanoma = tested on: UACC-62 melanoma
# HL-60(TB) leukemia = tested on: HL-60(TB) leukemia
# M14 melanoma = tested on: M14 melanoma
# UACC-257 melanoma = tested on: UACC-257 melanoma
# M19-MEL melanoma = tested on: M19-MEL melanoma
# DMS 114 small cell lung = tested on: DMS 114 small cell lung
# CCRF-CEM leukemia = tested on: CCRF-CEM leukemia
# MOLT-4 leukemia = tested on: MOLT-4 leukemia
# A498 renal = tested on: A498 renal
# EKVX NSCLC = tested on: EKVX NSCLC
# RXF 393 renal = tested on: RXF 393 renal
# HCC-2998 colon = tested on: HCC-2998 colon
# SK-MEL-5 melanoma = tested on: SK-MEL-5 melanoma
smiles,measurement,setting,value
COc1ccc(Nc2nc(C#N)c(N)s2)cc1,TGI,786-0 renal,> 100 µM
same,TGI,K-562 leukemia,> 100 µM
same,TGI,SNB-75 CNS,> 100 µM
same,TGI,SF-295 CNS,91.3 µM
same,TGI,NCI-H23 lung,47.8 µM
same,TGI,NCI-H522 lung,> 100 µM
same,TGI,HT29 colon,> 100 µM
same,TGI,OVCAR-8 ovarian,> 100 µM
same,TGI,KM12 colon,> 100 µM
same,TGI,SW-620 colon,> 100 µM
same,TGI,HOP-62 NSCLC,> 100 µM
same,TGI,SK-MEL-28 melanoma,> 100 µM
same,TGI,LXFL 529 NSCLC,> 100 µM
same,TGI,UO-31 renal,> 100 µM
same,TGI,SF-539 CNS,> 100 µM
same,TGI,KM20L2 colon,> 100 µM
same,TGI,OVCAR-3 ovarian,> 100 µM
same,TGI,SF-268 CNS,> 100 µM
same,TGI,SK-OV-3 ovarian,> 100 µM
same,TGI,IGROV1 ovarian,> 100 µM
same,TGI,COLO 205 colon,> 100 µM
same,TGI,HCT-15 colon,> 100 µM
same,TGI,HOP-92 NSCLC,> 100 µM
same,TGI,MALME-3M melanoma,> 100 µM
same,TGI,HCT-116 colon,> 100 µM
same,TGI,NCI-H460 lung,> 100 µM
same,TGI,OVCAR-4 ovarian,> 100 µM
same,TGI,SN12C renal,> 100 µM
same,TGI,DLD-1 colon,> 100 µM
same,TGI,SNB-19 CNS,> 100 µM
same,TGI,ACHN renal,60.3 µM
same,TGI,DMS 273 small cell lung,> 100 µM
same,TGI,RXF-631 renal,> 100 µM
same,TGI,NCI-H226 lung,> 100 µM
same,TGI,U251 CNS,> 100 µM
same,TGI,RPMI-8226 leukemia,77.8 µM
same,TGI,SNB-78 CNS,> 100 µM
same,TGI,A549 NSCLC,> 100 µM
same,TGI,CAKI-1 renal,> 100 µM
same,TGI,TK-10 renal,89.6 µM
same,TGI,LOX IMVI melanoma,56.1 µM
same,TGI,OVCAR-5 ovarian,> 100 µM
same,TGI,SK-MEL-2 melanoma,> 100 µM
same,TGI,XF 498 CNS,64 µM
same,TGI,UACC-62 melanoma,> 100 µM
same,TGI,HL-60(TB) leukemia,89.2 µM
same,TGI,M14 melanoma,> 100 µM
same,TGI,UACC-257 melanoma,> 100 µM
CC(O)C(C(=O)O)N(CC1(O)OCC(O)C(O)C1O)N=O (configuration not stated),TGI,786-0 renal,> 100 µM
same,TGI,K-562 leukemia,> 100 µM
same,TGI,SNB-75 CNS,> 100 µM
same,TGI,NCI-H23 lung,> 100 µM
same,TGI,NCI-H522 lung,> 100 µM
same,TGI,HT29 colon,> 100 µM
same,TGI,M19-MEL melanoma,> 100 µM
same,TGI,DMS 114 small cell lung,> 100 µM
same,TGI,OVCAR-8 ovarian,> 100 µM
same,TGI,KM12 colon,> 100 µM
same,TGI,SW-620 colon,> 100 µM
same,TGI,HOP-62 NSCLC,> 100 µM
same,TGI,SK-MEL-28 melanoma,> 100 µM
same,TGI,CCRF-CEM leukemia,> 100 µM
same,TGI,LXFL 529 NSCLC,> 100 µM
same,TGI,UO-31 renal,> 100 µM
same,TGI,SF-539 CNS,> 100 µM
same,TGI,KM20L2 colon,> 100 µM
same,TGI,OVCAR-3 ovarian,> 100 µM
same,TGI,SK-OV-3 ovarian,> 100 µM
same,TGI,IGROV1 ovarian,> 100 µM
same,TGI,COLO 205 colon,> 100 µM
same,TGI,HOP-92 NSCLC,> 100 µM
same,TGI,MALME-3M melanoma,> 100 µM
same,TGI,HCT-116 colon,> 100 µM
same,TGI,NCI-H460 lung,> 100 µM
same,TGI,DLD-1 colon,> 100 µM
same,TGI,ACHN renal,> 100 µM
same,TGI,MOLT-4 leukemia,> 100 µM
same,TGI,DMS 273 small cell lung,> 100 µM
same,TGI,RXF-631 renal,> 100 µM
same,TGI,U251 CNS,> 100 µM
same,TGI,RPMI-8226 leukemia,> 100 µM
same,TGI,A498 renal,> 100 µM
same,TGI,SNB-78 CNS,> 100 µM
same,TGI,EKVX NSCLC,> 100 µM
same,TGI,A549 NSCLC,> 100 µM
same,TGI,TK-10 renal,> 100 µM
same,TGI,LOX IMVI melanoma,> 100 µM
same,TGI,OVCAR-5 ovarian,> 100 µM
same,TGI,SK-MEL-2 melanoma,> 100 µM
same,TGI,XF 498 CNS,> 100 µM
same,TGI,RXF 393 renal,> 100 µM
same,TGI,HCC-2998 colon,> 100 µM
same,TGI,UACC-62 melanoma,> 100 µM
same,TGI,HL-60(TB) leukemia,> 100 µM
same,TGI,M14 melanoma,> 100 µM
same,TGI,UACC-257 melanoma,> 100 µM
O=C1CCC(=O)N1CNc1cccc(NCN2C(=O)CCC2=O)c1,TGI,786-0 renal,> 100 µM
same,TGI,K-562 leukemia,> 100 µM
same,TGI,SNB-75 CNS,> 100 µM
same,TGI,SF-295 CNS,> 100 µM
same,TGI,NCI-H23 lung,> 100 µM
same,TGI,NCI-H522 lung,> 100 µM
same,TGI,SK-MEL-5 melanoma,> 100 µM
same,TGI,HT29 colon,> 100 µM
same,TGI,M19-MEL melanoma,> 100 µM
same,TGI,OVCAR-8 ovarian,> 100 µM
same,TGI,KM12 colon,> 100 µM
same,TGI,SW-620 colon,> 100 µM
same,TGI,HOP-62 NSCLC,> 100 µM
same,TGI,SK-MEL-28 melanoma,> 100 µM
same,TGI,CCRF-CEM leukemia,> 100 µM
same,TGI,LXFL 529 NSCLC,> 100 µM
same,TGI,UO-31 renal,> 100 µM
same,TGI,SF-539 CNS,> 100 µM
same,TGI,KM20L2 colon,28.4 µM
same,TGI,OVCAR-3 ovarian,> 100 µM
same,TGI,SF-268 CNS,> 100 µM
same,TGI,IGROV1 ovarian,> 100 µM
same,TGI,COLO 205 colon,> 100 µM
same,TGI,HCT-15 colon,> 100 µM
same,TGI,HOP-92 NSCLC,> 100 µM
same,TGI,MALME-3M melanoma,> 100 µM
same,TGI,HCT-116 colon,> 100 µM
same,TGI,NCI-H460 lung,> 100 µM
same,TGI,OVCAR-4 ovarian,> 100 µM
same,TGI,SN12C renal,> 100 µM
same,TGI,DLD-1 colon,> 100 µM
same,TGI,SNB-19 CNS,> 100 µM
same,TGI,ACHN renal,> 100 µM
same,TGI,MOLT-4 leukemia,> 100 µM
same,TGI,DMS 273 small cell lung,> 100 µM
same,TGI,RXF-631 renal,> 100 µM
same,TGI,U251 CNS,> 100 µM
same,TGI,RPMI-8226 leukemia,46.1 µM
same,TGI,SNB-78 CNS,> 100 µM
same,TGI,EKVX NSCLC,> 100 µM
same,TGI,A549 NSCLC,> 100 µM
same,TGI,TK-10 renal,> 100 µM
same,TGI,OVCAR-5 ovarian,> 100 µM
same,TGI,SK-MEL-2 melanoma,> 100 µM
same,TGI,XF 498 CNS,> 100 µM
same,TGI,RXF 393 renal,> 100 µM
same,TGI,HCC-2998 colon,> 100 µM
same,TGI,UACC-62 melanoma,> 100 µM
same,TGI,HL-60(TB) leukemia,49.8 µM
same,TGI,M14 melanoma,> 100 µM
same,TGI,UACC-257 melanoma,> 100 µM

# From PubChem BioAssay (NCI)
